Measured values taken from patent US20190133122A1, “FUNGICIDAL OR BACTERICIDAL COMPOSITION AND METHOD FOR CONTROLLING DISEASE” (Nissan Chemical Corporation, priority 2016, published 2019).
Structures can show the parent of a compound that is named as a salt.

test system: cucumber gray mold fungus (Botrytis cinerea); assay: Preventive test against gray mold (sprayed cucumber cotyledon, cut leaf inoculated); assay type: in vivo; settings: 1 ppm, active ingredient B alone; cucumber leaf, 20° C., 3 days after inoculation
Procedure: Such an agent was diluted with water to a predetermined concentration to obtain a test solution. Then, cucumber (variety: Sagami-hanjiro) was planted in a plastic pot of 90 cm^3, and in the cotyledon stage, 5 ml of the obtained test solution, was sprayed by a spray gun and air-dried. Thereafter, the treated leaf was cut off and placed in a plastic container which filled approximately 0.5 cm in depth water. A suspension of conidia of cucumber gray mold fungus (Botrytis cinerea) and a dissolved PDA culture medium were mixed at a ratio of 1:1 (mass ratio), and the mixture was dropped to inoculate the treated leaf with 30 μl. After the inoculation, the plastic container was sealed and left at 20° C. for 3 days, the ratio of the formed lesion occupying the inoculated leaf was measured, and the preventive value (observed value) was calculated in accordance with the following calculation formula.
Preventive value=[1−(treated plot lesion area ratio/untreated plot lesion area ratio)]×100
Further, from the preventive value at each agent concentration, a theoretical value expected by treatment of the mixing (theoretical value) was calculated by using the Colby method (Colby S. R. 1967, Weeds 15, 20-22), in order to analyze synergy. The calculation method is as follows.
X: preventive value of A agent (test solution obtained from active ingredient A) at x concentration
Y: preventive value of B agent (test solution obtained from active ingredient B) at y concentration
E: theoretical value expected by treatment of the mixture of A agent and B agent.
In the observed value and the theoretical value, calculated as the above, the obtained result is analyzed to be synergy if the observed value is larger than the theoretical value, to be antagonism if the theoretical value is larger than the observed value, and to be an additive effect if the observed value and the theoretical value are the same.

Which Preventive value does the source give for `CON(C(=O)c1cn(C)nc1C(F)F)C(C)Cc1c(Cl)cc(Cl)cc1Cl` (stereo not shown) [Compound No. C49, pydiflumetofen] here?
The Preventive value was 45.

For `O=C(Nc1ccccc1-c1ccc(F)c(F)c1)c1nccnc1C(F)(F)F` [Compound No. C50, pyraziflumid], which Preventive value is on record?
The Preventive value was 70.

same assay, conditions: 5 ppm, active ingredient B alone; cucumber leaf, 20° C., 3 days after inoculation

For `C=CCSC(=O)n1c(N)c(-c2ccccc2C)c(=O)n1C(C)C` [Compound No. H50, fenpyrazamine], which Preventive value is on record?
The Preventive value was 56.

same assay, conditions: 10 ppm, active ingredient B alone; cucumber leaf, 20° C., 3 days after inoculation

How did the Preventive value turn out when `CNC(=O)/C(=N/OC)c1ccccc1CO/N=C(C)/C=C/c1c(Cl)cccc1Cl` [C25, fenaminstrobin] was run?
The Preventive value was 55.

Which Preventive value does the source give for `CC(O)(Cn1cncn1)c1ccc(Oc2ccc(Cl)cc2)cc1C(F)(F)F` (stereo not shown) [H51, mefentrifluconazole] here?
Its Preventive value is 53.

For `CC1(C)N=C(c2cnc3ccccc3c2)c2ccccc2C1(F)F` [M20, quinofumelin], which Preventive value is on record?
Its Preventive value is 60.

same assay, conditions: 100 ppm, active ingredient B alone; cucumber leaf, 20° C., 3 days after inoculation

With `COCC(=O)N(c1c(C)cccc1C)[C@H](C)C(=O)OC` [A05, metalaxyl-M] as the compound, how does the Preventive value read?
The Preventive value was 5.

How did the Preventive value turn out when `CO/C=C(/C(=O)OC)c1ccccc1CO/N=C(C)/C=C/c1ccc(Cl)cc1` [C22, enoxastrobin] was run?
The Preventive value was 85.

Which Preventive value does the source give for `COC(=O)N(OC)c1ccccc1COc1nc(Cl)c(Cl)cc1Cl` [C38, triclopyricarb] here?
The Preventive value was 69.

With `C[C@H]1O[C@H](O[C@H]2[C@H](O)[C@@H](O)[C@@H](O)[C@H](O)[C@@H]2O)[C@@H](N)C[C@@H]1NC(=N)C(=O)O` [D05, kasugamycin] as the compound, how does the Preventive value read?
Its Preventive value is 28.

For `CN1OC(c2ccc(Cl)cc2)CC1(C)c1cccnc1` (stereo not shown) [H33, pyrisoxazole], which Preventive value is on record?
Its Preventive value is 9.

How did the Preventive value turn out when `C#CCOc1ccc(CCNC(=O)C(OCC#C)c2ccc(Cl)cc2)cc1OC` (stereo not shown) [I08, mandipropamid] was run?
Its Preventive value is 10.

Which Preventive value does the source give for `[Cl-].[Cu+2].[Cu+2].[OH-].[OH-].[OH-]` [L08, copper oxychloride] here?
Its Preventive value is 5.

Which Preventive value does the source give for `Cn1c(=O)c2sc3c(=O)n(C)c(=O)c3sc2c1=O` [M23, dipymetitrone] here?
The Preventive value was 54.

Which Preventive value does the source give for `CCSS(=O)(=O)CC` [M34, ethylicin] here?
Its Preventive value is 10.

For Bacillus subtilis D747 strain [G13], which Preventive value is on record?
Its Preventive value is 28.

basic copper sulfate [L10] was tested. Which Preventive value did it give?
The Preventive value was 18.

How did the Preventive value turn out when fosetyl-aluminium [M08] was run?
Its Preventive value is 10.

same assay, conditions: Botrytis cinerea, 72 h, read-out: Preventive value

With `COCC(=O)N(c1c(C)cccc1C)N1CCOC1=O` [A07, oxadixyl] as the compound, how does the pest or weed control at 100 ppm read?
The pest or weed control at 100 ppm was 10%.

For `Cc1cccc(-n2nnn(C)c2=O)c1COc1ccn(-c2ccc(Cl)cc2)n1` [C51, 1-(2-[([1-(4-chlorophenyl)-1H-pyrazol-3-yl]oxy)-methyl]-3-methylphenyl)-4-methyl-1,4-dihydro-5H-tetrazol-5-one], which pest or weed control at 100 ppm is on record?
The pest or weed control at 100 ppm was 48%.

With `Clc1ccc(CSC(Cn2cncn2)=Nc2ccc(Cl)cc2Cl)cc1` [H21, imibenconazole] as the compound, how does the pest or weed control at 10 ppm read?
Its pest or weed control at 10 ppm is 20%.

For `S=C(S)NCCNC(=S)S` [L35, zineb], which pest or weed control at 100 ppm is on record?
Its pest or weed control at 100 ppm is 23%.

For `Cc1nc2c(F)c(F)ccc2cc1Oc1cccc(F)c1C(C)(C)O` [M21, 2-(2-[(7,8-difluoro-2-methylquinolin-3-yl)oxy]-6-fluoro-phenyl)propan-2-ol], which pest or weed control at 1 ppm is on record?
The pest or weed control at 1 ppm was 65%.

same assay, conditions: Botrytis cinerea, 72 h; 10 ppm, active ingredient B alone; cucumber leaf, 20° C., 3 days after inoculation; read-out: Preventive value

For `COC(=O)Nc1nc2ccccc2[nH]1` [B02, carbendazim], which pest or weed control at 10 ppm is on record?
Its pest or weed control at 10 ppm is 85%.

For `Cc1nnc(Cl)c(-c2c(F)cccc2F)c1-c1ccccc1` [M44, 3-chloro-4-(2,6-difluorophenyl)-6-methyl-5-phenyl-pyridazine], which pest or weed control at 10 ppm is on record?
The pest or weed control at 10 ppm was 28%.

same assay, conditions: Botrytis cinerea, 72 h; 100 ppm, active ingredient B alone; cucumber leaf, 20° C., 3 days after inoculation; read-out: Preventive value

`Cc1cc(O)no1` [A10, hymexazol] was tested. Which pest or weed control at 100 ppm did it give?
Its pest or weed control at 100 ppm is 10%.

`CCC(C)(NC(=O)c1cc(Cl)c(C)c(Cl)c1)C(=O)CCl` (stereo not shown) [B08, zoxamide] was tested. Which pest or weed control at 100 ppm did it give?
Its pest or weed control at 100 ppm is 15%.

`Cc1ccc(-c2c(Cl)nc(C#N)n2S(=O)(=O)N(C)C)cc1` [C41, cyazofamid] was tested. Which pest or weed control at 100 ppm did it give?
Its pest or weed control at 100 ppm is 10%.

For `[H]/N=C(/N)N[C@H]1[C@H](O)[C@@H](O)[C@H](O[C@@H]2O[C@@H](C)[C@](O)(C=O)[C@H]2O[C@@H]2O[C@@H](CO)[C@H](O)[C@@H](O)[C@@H]2NC)[C@@H](N/C(N)=N\[H])[C@@H]1O` [D06, streptomycin], which pest or weed control at 100 ppm is on record?
Its pest or weed control at 100 ppm is 13%.

Which pest or weed control at 100 ppm does the source give for `CCCOC(=O)NCCCN(C)C` [G12, propamocarb hydrochloride] here?
Its pest or weed control at 100 ppm is 15%.

`CCCC1COC(Cn2cncn2)(c2ccc(Cl)cc2Cl)O1` (stereo not shown) [H30, propiconazole] was tested. Which pest or weed control at 100 ppm did it give?
The pest or weed control at 100 ppm was 38%.

With `CC(C)(C)C(=O)C(Oc1ccc(Cl)cc1)n1cncn1` (stereo not shown) [H37, triadimefon] as the compound, how does the pest or weed control at 100 ppm read?
Its pest or weed control at 100 ppm is 38%.

`CCCOC/C(=N\c1ccc(Cl)cc1C(F)(F)F)n1ccnc1` [H39, triflumizole] was tested. Which pest or weed control at 100 ppm did it give?
Its pest or weed control at 100 ppm is 10%.

With `OCC1=C[C@H](N[C@H]2C[C@H](CO)[C@@H](O[C@@H]3O[C@H](CO)[C@@H](O)[C@H](O)[C@H]3O)[C@H](O)[C@H]2O)[C@H](O)[C@@H](O)[C@@H]1O` [I01, validamycin] as the compound, how does the pest or weed control at 100 ppm read?
Its pest or weed control at 100 ppm is 10%.

For `COc1ccc(C(=CC(=O)N2CCOCC2)c2ccc(Cl)cc2)cc1OC` [I05, dimethomorph], which pest or weed control at 100 ppm is on record?
Its pest or weed control at 100 ppm is 18%.

With `CN(C)C(=S)SSC(=S)N(C)C` [L21, thiram] as the compound, how does the pest or weed control at 100 ppm read?
Its pest or weed control at 100 ppm is 28%.

How did the pest or weed control at 100 ppm turn out when `CCNC(=O)NC(=O)/C(C#N)=N/OC` [M02, cymoxanil] was run?
The pest or weed control at 100 ppm was 13%.
